In the experiment the target is Isoform Bcl-X(L) of Bcl-2-like protein 1 (Bcl-xL) (Homo sapiens, UniProt Q07817).

The source of these data is BindingDB's records for patent US10221174 (University of Michigan, 2019).

As a reminder, the IC50 is the point on the concentration scale where inhibition reaches its midpoint. Lower therefore signals greater potency in that assay.

Isoform Bcl-X(L) of Bcl-2-like protein 1 (Bcl-xL), sequence (Q07817 whole entry G70A, canonical isoform): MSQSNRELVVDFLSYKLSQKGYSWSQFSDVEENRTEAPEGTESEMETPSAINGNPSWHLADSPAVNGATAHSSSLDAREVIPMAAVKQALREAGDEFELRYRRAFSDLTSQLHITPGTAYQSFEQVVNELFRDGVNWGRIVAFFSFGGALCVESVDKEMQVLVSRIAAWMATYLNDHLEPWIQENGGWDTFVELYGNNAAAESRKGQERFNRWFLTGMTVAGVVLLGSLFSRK

Molecule `O=C(NS(=O)(=O)c1cc([N+](=O)[O-])c2cnn(C3CCOCC3)c2c1)c1ccc(N2CCN(CC3=C(c4ccc(Cl)cc4)CC4(CCC4)CC3)CC2)cc1Oc1cnc2[nH]ccc2c1` [US10221174, Compound 64] gave an IC50 of 8.7 nM. In the case of `O=C(NS(=O)(=O)c1cc([N+](=O)[O-])c2cnn(CC3CCOCC3)c2c1)c1ccc(N2CCN(CC3=C(c4ccc(Cl)cc4)CC4(CCC4)CC3)CC2)cc1Oc1cnc2[nH]ccc2c1` [US10221174, Compound 62] it was 4 nM.
